In general, melting point refers to the temperature of the solid-liquid transition. In general, Ki refers to a dissociation constant, usually derived from enzyme kinetics or from competition with a known ligand. A higher Ki goes with weaker binding.

Structures can show the parent of a compound that is named as a salt.

T1 sequence (P50406 whole entry): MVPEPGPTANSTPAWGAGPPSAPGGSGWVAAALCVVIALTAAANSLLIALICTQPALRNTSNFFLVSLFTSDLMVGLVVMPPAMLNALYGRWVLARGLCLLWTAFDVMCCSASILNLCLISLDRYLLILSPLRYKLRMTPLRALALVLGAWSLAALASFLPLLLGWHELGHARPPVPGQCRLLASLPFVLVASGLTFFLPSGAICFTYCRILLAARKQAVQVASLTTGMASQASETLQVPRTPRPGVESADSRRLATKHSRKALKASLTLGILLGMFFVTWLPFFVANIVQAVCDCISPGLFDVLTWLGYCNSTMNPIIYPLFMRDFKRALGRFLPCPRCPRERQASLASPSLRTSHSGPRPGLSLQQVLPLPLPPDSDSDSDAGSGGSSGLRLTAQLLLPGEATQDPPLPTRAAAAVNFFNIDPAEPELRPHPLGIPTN

Test system in one data set: not given
Experiment: not given
Conditions: not given
For the molecule `O=[N+]([O-])c1ccc(S(=O)(=O)n2ncc3c(OCCN4CCCCC4)cccc32)cc1` (as salt: hydrochloride) [Example 15, 1-[(4-nitrophenyl)sulfonyl]-4-[2-(1-piperidinyl)ethoxy]-1H-indazole], the melting point was 117 to 119 °C.

Turning to `O=S(=O)(c1ccc(F)cc1)n1ncc2c(OCCN3CCCCC3)cccc21` (as salt: hydrochloride) [Example 16, 1-[(4-fluorophenyl)sulfonyl]-4-[2-(1-piperidinyl)ethoxy]-1H-indazole], the melting point was 122 °C (dec.).

A further data set has as its target T1, human cloned 5-HT6 receptors (Homo sapiens, UniProt P50406).
T1 construct: expressed in transfected cells; host or cells: HeLa cells
The experiment in a line: 5-HT6 binding affinity, [3H]-LSD displacement from membranes of Hela cells expressing human cloned 5-HT6 receptors. Particulars: 1 μM test compound; [3H]-LSD 3.0 nM. How it is done:
The affinity of test compounds for the serotonin 5-HT6 receptor is evaluated in the following manner. Cultured Hela cells expressing human cloned 5-HT6 receptors are harvested and centrifuged at low speed (1,000×g) for 10.0 min to remove the culture media. The harvested cells are suspended in half volume of fresh physiological phosphate buffered saline solution and recentrifuged at the same speed. This operation is repeated. The collected cells are then homogenized in ten volumes of 50 mM Tris.HCl (pH 7.4) and 0.5 mM EDTA. The homogenate is centrifuged at 40,000×g for 30.0 min and the precipitate is collected. The obtained pellet is resuspended in 10 volumes of Tris.HCl buffer and recentrifuged at the same speed. The final pellet is suspended in a small volume of Tris.HCl buffer and the tissue protein content is determined in aliquots of 10-25 μl volumes. Bovine Serum Albumin is used as the standard in the protein determination according to the method described in Lowry et al., J. Biol. Chem., 193:265 (1951). The volume of the suspended cell membranes is adjusted to give a tissue protein concentration of 1.0 mg/ml of suspension. The prepared membrane suspension (10 times concentrated) is aliquoted in 1.0 ml volumes and stored at −70° C. until used in subsequent binding experiments.
Binding experiments are performed in a 96 well microtiter plate format, in a total volume of 200 μl. […] The test compounds are added in 20.0 μl volume.
The reaction is allowed to proceed in the dark for 120 min at room temperature, at which time, the bound ligand-receptor complex is filtered off on a 96 well unifilter with a Packard Filtermate® 196 Harvester. The bound complex caught on the filter disk is allowed to air dry and the radioactivity is measured in a Packard TopCount® equipped with six photomultiplier detectors, after the addition of 40.0 μl Microscint®-20 scintillant to each shallow well. The unifilter plate is heat-sealed and counted in a PackardTopCount® with a tritium efficiency of 31.0%.
Binding in the presence of varying concentrations of test compound is expressed as a percentage of specific binding in the absence of test compound. The results are plotted as log % bound versus log concentration of test compound. […] A linear regression line of data points is plotted, from which the IC50 value is determined and the Ki value is determined based upon the following equation: Ki=IC50/(1+L/KD) where L is the concentration of the radioactive ligand used and KD is the dissociation constant of the ligand for the receptor, both expressed in nM.
Take “N,N-Bis(3-methoxybenzyl)-N-(2-{[1-(phenylsulfonyl)-1H-indol-4-yl]oxy}ethylamine [Example 7a]”: the “% inhibition at 1 μM concentration (5-HT6 binding)” value came to 94% @ 1 μM*. On the same count and under the same terms, with “N-(3-methoxybenzyl)-N-(2-{[1-(phenylsulfonyl)-1H-indol-4-yl]oxy}ethylamineH hydrochloride [Example 7b]” the figure was 95% @ 1 μM*.

The data set is the same for the next values; noted with them: 1 μM test compound; [3H]-LSD 3.0 nM; read-out: % inhibition at 1 μM concentration (5-HT6 binding).
For the molecule `O=S(=O)(c1ccccc1)n1ccc2c(OCCN3CCOCC3)cccc21` [Example 9, 4-(2-Morpholin-4-ylethoxy)-1-(phenylsulfonyl)-1H-indole Hydrochloride], the inhibition at 1 µM turned out to be 92%. The same measure, in the same setting: with `O=[N+]([O-])c1ccc(S(=O)(=O)n2ncc3c(OCCN4CCCCC4)cccc32)cc1` [Example 15, 1-[(4-nitrophenyl)sulfonyl]-4-[2-(1-piperidinyl)ethoxy]-1H-indazole] the figure was 76%.

Still in this data set, the particulars now being: [3H]-LSD 3.0 nM, Hela cell membranes, 120 min at room temperature.
Consider `NCCOc1cccc2c1ccn2S(=O)(=O)c1ccccc1` [Example 5, 2-{[1-(Phenylsulfonyl)-1H-indole-4-yl]oxy}ethylamine Hydrochloride], for which the Ki came to 2 nM. As to `O=S(=O)(c1ccccc1)n1ccc2c(OCCNC3CCOCC3)cccc21` [Example 6, N-(2-{[1-(Phenylsulfonyl)-1H-indol-4-yl]oxy}ethyl)tetrahydro-2H-pyran-4-amine Hydrochloride], the Ki was 6 nM.

Molecule `CN(C)CCOc1cccc2c1ccn2S(=O)(=O)c1ccccc1` [Example 8, N,N-Dimethyl-N-(2-{[1-phenylsulfonyl)-1H-indol-4-yl]oxy}ethylamine Hydrochloride] displayed a Ki of 4 nM. Compared with the last molecule, the Ki is about 1.5-fold lower.

`O=S(=O)(c1ccccc1)n1ccc2c(OCCN3CCCCC3)cccc21` [Example 10, 1-(Phenylsulfonyl)-4-(2-piperidin-1-ylethoxy)-1H-indole Hydrochloride] returned a Ki of 7 nM. Still for that read-out and setting: with `O=S(=O)(c1ccccc1)n1ncc2c(OCCN3CCCCC3)cccc21` [Example 13, 1-Phenylsulfonyl)-4-[1-piperidinyl)ethoxy]-1H-indazole Hydrochloride] the figure was 2 nM; with `NCCOc1cccc2c1cnn2S(=O)(=O)c1ccccc1` [Example 14, 2-{[1-Phenylsulfonyl)-1H-indazol-4-yl]oxy}ethylamine Hydrochloride], 1 nM; with `O=S(=O)(c1ccc(F)cc1)n1ncc2c(OCCN3CCCCC3)cccc21` [Example 16, 1-[(4-fluorophenyl)sulfonyl]-4-[2-(1-piperidinyl)ethoxy]-1H-indazole], 19 nM. As to `O=S(=O)(c1ccccc1)n1ncc2c(OCCNC3CCOCC3)cccc21` [Example 17], the affinity corresponds to a Ki of 6 nM. On the same count and under the same terms, the figure for `O=S(=O)(c1ccccc1)n1ncc2c(OCCNC3CCSCC3)cccc21` [Example 18, N-(2-{[1-Phenylsulfonyl)-1H-indazol-4-yl]oxy}ethyl)tetrahydro-2H-thiopyran-4-amine Hydrochloride] is 11 nM; for `Nc1ccc(S(=O)(=O)n2ncc3c(OCCN4CCCCC4)cccc32)cc1` [Example 19, 4-({4-[2-(1-Piperidinyl)ethoxy]-1H-indazol-1-yl}sulfonyl)aniline] it is 1 nM.

The values are drawn from patent US6919354B2, “1-aryl-or 1-alkylsulfonylbenzazole derivatives as 5-hydroxytryptamine-6 ligands” (Wyeth, priority 2001, dated 2005).
